Values quoted from earlier work as cited in patent US4039736A (Bristol-Myers Company, priority 1976, dated 1977).

Tested on: animal tumor systems
Conditions: reported in literature; cited from earlier work

CC(=O)[C@]1(O)Cc2c(O)c3c(c(O)c2[C@@H](O[C@H]2C[C@H](N)[C@H](O)[C@H](C)O2)C1)C(=O)c1c(O)cccc1C3=O [carminomycin]
activity against animal tumor systems: active against several animal tumor systems
